What follows are molecules tested against IDH1 R132H (Homo sapiens, UniProt O75874, R132H) (assay: High Throughput Screening (HTS) for IDH1 R132H inhibitors (resazurin/NADPH fluorescence assay)). Settings: IDH1m; assay similar to Example 1; class symbols.
Assay type: biochemical
Experimental: A compound described herein may be an inhibitor of IDH1m. […] B refers to an inhibitor of IDH1m with an IC50 between 1 μM and 50 μM. C refers to an inhibitor of IDH1m with an IC50 greater than 50 μM. D refers to a compound wherein an IC50 is not available.
Assays were conducted in a volume of 76 μl assay buffer (150 mM NaCl, 10 mM MgCl2, 20 mM Tris pH 7.5, 0.03% bovine serum albumin) as follows in a standard 384-well plate: To 25 ul of substrate mix (8 uM NADPH, 2 mM aKG), 1 μl of test compound was added in DMSO. The plate was centrifuged briefly, and then 25 μl of enzyme mix was added (0.2 μg/ml ICDH1 R132H) followed by a brief centrifugation and shake at 100 RPM. The reaction was incubated for 50 minutes at room temperature, then 25 μl of detection mix (30 μM resazurin, […]) was added and the mixture further incubated for 5 minutes at room temperature. The conversion of resazurin to resorufine was detected by fluorescent spectroscopy at Ex544 Em590 c/o 590.

Sequence of IDH1 R132H (O75874 whole entry R132H): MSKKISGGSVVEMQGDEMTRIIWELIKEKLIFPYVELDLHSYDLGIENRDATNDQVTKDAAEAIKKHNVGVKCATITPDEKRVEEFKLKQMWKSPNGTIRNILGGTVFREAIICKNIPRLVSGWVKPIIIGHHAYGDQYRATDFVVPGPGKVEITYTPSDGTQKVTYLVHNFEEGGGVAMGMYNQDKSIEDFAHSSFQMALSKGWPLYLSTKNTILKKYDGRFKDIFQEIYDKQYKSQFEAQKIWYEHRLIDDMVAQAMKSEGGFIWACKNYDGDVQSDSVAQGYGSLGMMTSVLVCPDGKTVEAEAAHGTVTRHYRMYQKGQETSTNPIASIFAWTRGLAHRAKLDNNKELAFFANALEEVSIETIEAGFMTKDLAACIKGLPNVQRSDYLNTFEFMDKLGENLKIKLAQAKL

Structure (SMILES)	IC50 [µM]
CCCCc1ccc(NS(=O)(=O)c2ccc(C)c(C(=O)N3CCN(c4ccccn4)CC3)c2)cc1	1 to 50
CCCc1ccc(NS(=O)(=O)c2cccc(C(=O)N3CCN(c4ccccc4)CC3)c2)cc1	1 to 50
Cc1ccc(S(=O)(=O)Nc2ccc(C(C)C)cc2)cc1C(=O)N1CCN(c2ccccc2)CC1	1 to 50
COc1ccccc1N1CCCN(C(=O)c2cccc(S(=O)(=O)Nc3ccc(C(C)C)cc3)c2)CC1	1 to 50
CCCCc1ccc(NS(=O)(=O)c2ccc(C)c(C(=O)N3CCN(c4ccncc4)CC3)c2)cc1	1 to 50
CCCCc1ccc(NS(=O)(=O)c2cccc(C(=O)N3CCN(c4ccccc4OC)CC3)c2)cc1	1 to 50
CCCCc1ccc(NS(=O)(=O)c2ccc(C)c(C(=O)N3CCN(c4ccccc4Cl)CC3)c2)cc1	< 1
CCCCc1ccc(NS(=O)(=O)c2cccc(C(=O)N3CCN(c4ccncc4)CC3)c2)cc1	1 to 50
COc1ccccc1N1CCN(C(=O)c2cc(S(=O)(=O)Nc3ccc(OC(C)C)cc3)ccc2C)CC1	1 to 50
CCCCc1ccc(NS(=O)(=O)c2ccc(C)c(C(=O)N3CCN(c4ccccc4-c4ccccc4)CC3)c2)cc1	1 to 50
CCCCc1ccc(NS(=O)(=O)c2ccc(C)c(C(=O)N3CCN(c4ccccc4C(C)C)CC3)c2)cc1	1 to 50
COc1ccccc1N1CCN(C(=O)c2cc(S(=O)(=O)Nc3ccc(OCc4cn(Cc5ccccc5)nn4)cc3)ccc2C)CC1	1 to 50
COc1ccccc1N1CCN(C(=O)c2cc(S(=O)(=O)Nc3ccc(C)c4cccnc34)ccc2C)CC1	1 to 50
CCCCc1ccc(NS(=O)(=O)c2ccc(N3CCOCC3)c(C(=O)N3CCN(c4ccccc4OC)CC3)c2)cc1	1 to 50
CCCCc1ccc(NS(=O)(=O)c2ccc(N3CCCC3)c(C(=O)N3CCN(c4ccccc4OC)CC3)c2)cc1	1 to 50
CCCCc1ccc(C(=O)Nc2ccc(C)c(C(=O)N3CCN(c4ccccc4OC)CC3)c2)cc1	1 to 50
CCCCc1ccc(OC(=O)Nc2ccc(C)c(C(=O)N3CCN(c4ccccc4OC)CC3)c2)cc1	> 50
Cc1ccc(S(=O)(=O)Nc2ccc(Cl)cc2)cc1C(=O)N1CCN(c2ccccn2)CC1	> 50
COc1ccccc1N1CCN(C(=O)c2cccc(S(=O)(=O)Nc3ccccc3F)c2)CC1	> 50
O=C(c1cccc(S(=O)(=O)Nc2ccccc2F)c1)N1CCN(c2ccccc2)CC1	> 50
COc1ccc(NS(=O)(=O)c2cccc(C(=O)N3CCN(c4ccccc4)CC3)c2)cc1	> 50
COc1ccc(NS(=O)(=O)c2cccc(C(=O)N3CCN(c4ccccc4OC)CC3)c2)cc1	> 50
CCOc1ccc(NS(=O)(=O)c2cccc(C(=O)N3CCCN(c4ccccc4OC)CC3)c2)cc1	> 50
Cc1ccc(S(=O)(=O)Nc2ccc(Cl)cc2)cc1C(=O)N1CCN(c2ccccc2)CC1	> 50
COc1ccccc1NS(=O)(=O)c1cccc(C(=O)N2CCCN(c3ccccc3OC)CC2)c1	> 50
Cc1cc(F)ccc1NS(=O)(=O)c1cccc(C(=O)N2CCN(c3ccccn3)CC2)c1	> 50
CCCc1ccccc1NS(=O)(=O)c1cccc(C(=O)N2CCN(c3ccccc3)CC2)c1	1 to 50

Structure (SMILES)	IC50 [µM]
CCOc1ccc(NS(=O)(=O)c2ccc(C)c(C(=O)N3CCN(c4ccccn4)CC3)c2)cc1	> 50
CCCCc1ccc(NS(=O)(=O)c2cccc(C(=O)N3CCN(c4ncc(C)cc4Cl)CC3)c2)cc1	1 to 50
COc1ccccc1N1CCN(C(=O)c2cccc(NS(=O)(=O)c3cccc4cccnc34)c2)CC1	> 50
CCCCc1ccc(NS(=O)(=O)c2cccc(C(=O)N3CCN(c4ccccn4)CC3)c2)cc1	1 to 50
CC(C)(C)c1ccc(NS(=O)(=O)c2cccc(C(=O)N3CCN(c4ccccc4)CC3)c2)cc1	1 to 50
CCCCc1ccc(NS(=O)(=O)c2ccc(C)c(C(=O)N3CCN(c4ccccc4OC)CC3)c2)cc1	< 1
CCCCc1ccc(NS(=O)(=O)c2cccc(C(=O)N3CCN(c4ncccn4)CC3)c2)cc1	1 to 50
CCCCc1ccc(NS(=O)(=O)c2cccc(C(=O)N3CCN(c4ncc(C(F)(F)F)cc4Cl)CC3)c2)cc1	1 to 50
CCCCOc1ccc(NS(=O)(=O)c2ccc(C)c(C(=O)N3CCN(c4ccccc4OC)CC3)c2)cc1	1 to 50
CCCOc1ccc(NS(=O)(=O)c2ccc(C)c(C(=O)N3CCN(c4ccccc4OC)CC3)c2)cc1	1 to 50
COc1ccccc1N1CCN(C(=O)c2cc(S(=O)(=O)Nc3ccc(OCC4CC4)cc3)ccc2C)CC1	1 to 50
COc1ccccc1N1CCN(C(=O)c2cc(S(=O)(=O)Nc3ccc(C)cc3)ccc2C)CC1	1 to 50
CCc1ccc(NS(=O)(=O)c2ccc(C)c(C(=O)N3CCN(c4ccccc4OC)CC3)c2)cc1	1 to 50
COc1ccc(NS(=O)(=O)c2ccc(C)c(C(=O)N3CCN(c4ccccc4OC)CC3)c2)cc1	1 to 50
CCCCc1ccc(NS(=O)(=O)c2ccc(C)c(C(=O)N3CCN(c4cccnc4OC)CC3)c2)cc1	1 to 50
CCCc1ccc(NS(=O)(=O)c2ccc(C)c(C(=O)N3CCN(c4ccccc4OC)CC3)c2)cc1	1 to 50
COc1ccccc1N1CCN(C(=O)c2cc(S(=O)(=O)Nc3ccc(CCc4ccccc4)cc3)ccc2C)CC1	1 to 50
CCCCc1ccc(NS(=O)(=O)c2ccc(F)c(C(=O)N3CCN(c4ccccc4OC)CC3)c2)cc1	1 to 50
CCCCc1ccc(NS(=O)(=O)c2ccc(C)c(C(=O)N3CCN(C(=O)NCC(C)C)CC3)c2)cc1	1 to 50
CCCCc1ccc(NS(=O)(=O)c2ccc(C)c(C(=O)N3CCN(Cc4cccc(C)c4)CC3)c2)cc1	1 to 50
CCCCc1ccc(NS(=O)(=O)c2ccc(C)c(C(=O)N3CCN(C(=O)C4CC4)CC3)c2)cc1	1 to 50
CCCCc1ccc(NS(=O)(=O)c2ccc(C)c(C(=O)N3CCN(C(=O)c4cscn4)CC3)c2)cc1	1 to 50
CCCCc1ccc(NS(=O)(=O)c2ccc(C)c(C(=O)N3CCN(Cc4ccccc4C)CC3)c2)cc1	1 to 50
CCCCc1ccc(NS(=O)(=O)c2ccc(C)c(C(=O)N3CCN(Cc4cc(C)c(C)cc4C)CC3)c2)cc1	1 to 50
CCCCc1ccc(NS(=O)(=O)c2ccc(C)c(C(=O)N3CCN(C(=O)OCC)CC3)c2)cc1	1 to 50
CCCCc1ccc(NS(=O)(=O)c2ccc(C)c(C(=O)N3CCN(CCCc4ccccc4)CC3)c2)cc1	1 to 50
CCCCc1ccc(NS(=O)(=O)c2cccc(C(=O)N3CCN(c4ccccc4OC)CC3)c2)c(C(=O)O)c1	1 to 50

Structure (SMILES)	IC50 [µM]
CCCCc1ccc(NS(=O)(=O)c2ccc(C)c(C(=O)N3CCN(c4ccc(F)cc4)CC3)c2)cc1	1 to 50
CCCCc1ccc(NS(=O)(=O)c2ccc(C)c(C(=O)N3CCN(c4cccc(C(F)(F)F)c4)CC3)c2)cc1	1 to 50
CCCCc1ccc(NS(=O)(=O)c2ccc(C)c(C(=O)N3CCN(c4ccc(OC)c(F)c4)CC3)c2)cc1	1 to 50
COc1ccccc1N1CCN(C(=O)c2cc(S(=O)(=O)Nc3cccc4cccnc34)ccc2C)CC1	1 to 50
COc1ccccc1N1CCN(C(=O)c2cc(S(=O)(=O)Nc3cccc4cc[nH]c34)ccc2C)CC1	1 to 50
CCCCc1ccc(NS(=O)(=O)c2ccc(C)c(C(=O)N3CCN(c4ccccc4OCc4ccccc4)CC3)c2)cc1	1 to 50
CCCCc1ccc(NS(=O)(=O)c2ccc(C)c(C(=O)N3CCN(c4ccccc4Oc4ccccc4)CC3)c2)cc1	1 to 50
CCOC(=O)COc1ccc(NS(=O)(=O)c2ccc(C)c(C(=O)N3CCN(c4ccccc4OC)CC3)c2)cc1	1 to 50
CCOC(=O)C(C)Oc1ccc(NS(=O)(=O)c2ccc(C)c(C(=O)N3CCN(c4ccccc4OC)CC3)c2)cc1 (centres unmarked)	1 to 50
CCCCc1ccc(NS(=O)(=O)c2ccc(C)c(C(=O)N3CCN(c4ccnc(N(C)C)c4)CC3)c2)cc1	1 to 50
CCCCc1ccc(NS(=O)(=O)c2ccc(C)c(C(=O)N3CCN(c4c(Cl)cccc4Cl)CC3)c2)cc1	1 to 50
CCCCc1ccc(NS(=O)(=O)c2ccc(C)c(C(=O)N3CCN(c4ccccc4OCCc4ccccc4)CC3)c2)cc1	1 to 50
CCCCc1ccc(NS(=O)(=O)c2ccc(C)c(C(=O)N3CCN(c4ccccc4OCC(C)C)CC3)c2)cc1	1 to 50
COC(=O)C(C)Nc1ccc(NS(=O)(=O)c2ccc(C)c(C(=O)N3CCN(c4ccccc4OC)CC3)c2)cc1 (centres unmarked)	1 to 50
CCCCc1ccc(NS(=O)(=O)c2ccc(C)c(C(=O)N3CCN(c4ccc(OC)c(OC)c4)CC3)c2)cc1	1 to 50
CCCCc1ccc(NS(=O)(=O)c2ccc(Br)c(C(=O)N3CCN(c4ccccc4OC)CC3)c2)cc1	1 to 50
COCOc1ccc(NS(=O)(=O)c2ccc(C)c(C(=O)N3CCN(c4ccccc4C)CC3)c2)cc1	1 to 50
COCCOCOc1ccc(NS(=O)(=O)c2ccc(C)c(C(=O)N3CCN(c4ccccc4C)CC3)c2)cc1	1 to 50
CCCCc1ccc(NS(=O)(=O)c2ccc(C)c(C(=O)N3CCN(c4c(C)cccc4C)CC3)c2)cc1	1 to 50
CCCCc1ccc(NS(=O)(=O)c2ccc(C)c(C(=O)N3CCN(c4ccccc4OC)CC3)c2)c(N(C)C)c1	1 to 50
CCCCc1ccc(NS(=O)(=O)c2cc3c(c(C(=O)N4CCN(c5ccccc5OC)CC4)c2)OCCN3)cc1	1 to 50
C=Cc1ccc(S(=O)(=O)Nc2ccc(CCCC)cc2)cc1C(=O)N1CCN(c2ccccc2OC)CC1	1 to 50
C#CCc1ccc(S(=O)(=O)Nc2ccc(CCCC)cc2)cc1C(=O)N1CCN(c2ccccc2OC)CC1	1 to 50
COc1ccccc1N1CCN(C(=O)c2cc(S(=O)(=O)Nc3ccc(C)c4cc[nH]c34)ccc2C)CC1	1 to 50
COc1ccccc1N1CCN(C(=O)c2cccc(S(=O)(=O)Nc3ccccc3)c2)CC1	> 50
O=C(c1cccc(S(=O)(=O)Nc2ccc(Cl)cc2)c1)N1CCN(c2ccccc2)CC1	> 50

Source: patent US20130035329A1, “THERAPEUTICALLY ACTIVE COMPOSITIONS AND THEIR METHODS OF USE” (priority 2009, published 2013)
